Source: patent publication US9302999B2, “Substituted triazoles as herbicides” (E. I. DU PONT DE NEMOURS AND COMPANY, priority 2012, dated 2016)

What was measured:
Assay type in all cases: in vivo
[1] = test system: pigweed (Amaranthus retroflexus); experiment: Test A pre-/postemergence: pigweed
Method in brief: (§1)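 Each species received preemergence soil-directed spraying and, at the same time, postemergence treatment of seedlings 2–10 cm tall. Formulation: non-phytotoxic solvent mixture including surfactant. Response assessed visually about ten days on, relative to untreated controls, 0–100 scale.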

[2] = test system: wheat (Triticum aestivum); experiment: Test A pre-/postemergence: wheat
Method in brief: as §1

[3] = test system: barnyardgrass (Echinochloa crus-galli); experiment: Test B flooded paddy: barnyardgrass; conditions: Flood; 250 g ai/ha; applied to paddy water at 2-leaf stage; visually evaluated after 13 to 15 days
Method in brief: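 Visual ratings on a 0–100 scale, where 0 means no effect and 100 means complete control, were assigned by comparison with controls 13 to 15 days after treatment. Compounds went into paddy water over 2-leaf plants flooded to 3 cm.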

[4] = test system: ryegrass, Italian (Italian ryegrass, Lolium multiflorum); experiment: Test C pre-/postemergence: ryegrass, Italian
Method in brief: (§2)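 Preemergence on seeds in loam/sand, postemergence on 2–18 cm (1–4-leaf) plants in peat-based medium; compounds in non-phytotoxic solvent with surfactant. After 13–15 days in greenhouse, visual rating versus controls, 0 (no effect) to 100 (complete control).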

[5] = test system: galium (catchweed bedstraw, Galium aparine); experiment: Test C pre-/postemergence: galium
Method in brief: as §2

corn (Zea mays) = experiment: Test C pre-/postemergence: corn
Method in brief: as §2

[6] = test system: large crabgrass (Digitaria sanguinalis); experiment: Test C pre-/postemergence: large crabgrass
Method in brief: as §2

[7] = test system: foxtail, giant (giant foxtail, Setaria faberii); experiment: Test C pre-/postemergence: foxtail, giant
Method in brief: as §2

[8] = test system: lambsquarters (Chenopodium album); experiment: Test C pre-/postemergence: lambsquarters
Method in brief: as §2

[9] = test system: morningglory (Ipomoea coccinea); experiment: Test C pre-/postemergence: morningglory
Method in brief: as §2

[10] = Postemergence, 125 g ai/ha, 0 to 100 scale, 0 is no effect, 100 is complete control
[11] = Postemergence, 500 g ai/ha, visual rating on 0 to 100 scale (0 no effect, 100 complete control), approximately ten days
[12] = Preemergence, 125 g ai/ha, 0 to 100 scale where 0 is no effect and 100 is complete control
[13] = Preemergence, 500 g ai/ha, 0 to 100 scale (0 no effect, 100 complete control)
[14] = Postemergence, 31 g ai/ha, scale 0 to 100 (0 no effect, 100 complete control)
[15] = Postemergence, 62 g ai/ha, scale 0 to 100 (0 no effect, 100 complete control)
[16] = Postemergence, 125 g ai/ha, scale 0 to 100, 0 no effect, 100 complete control
[17] = Postemergence, 250 g ai/ha, scale 0 to 100
[18] = Preemergence, 31 g ai/ha, scale of 0 to 100, 0 is no effect, 100 is complete control
[19] = Preemergence, 62 g ai/ha, scale of 0 to 100, 0 is no effect, 100 is complete control
[20] = Preemergence, 125 g ai/ha, scale 0 to 100, 0 no effect, 100 complete control
[21] = Preemergence, 250 g ai/ha, scale 0 to 100, 0 no effect, 100 complete control

Cc1nn(-c2ccc(C(F)(F)F)c(F)c2)nc1Oc1ccnc(C(F)(F)F)c1 [Compound 148]
40: Wheat plant response rating [2, 11]
10: Plant response rating, Ryegrass, Italian [4, 14] | Plant response rating, Corn (corn (Zea mays); [19]) | Plant response rating, Foxtail, Giant [7, 14]
60: Plant response rating, Ryegrass, Italian [4, 16] | Plant response rating, Ryegrass, Italian [4, 19] | Plant response rating, Ryegrass, Italian [4, 20] | Plant response rating, Corn (corn (Zea mays); [17]) | Plant response rating, Crabgrass, Large [6, 15] | Plant response rating, Crabgrass, Large [6, 16]
98: Plant response rating, Foxtail, Giant [7, 18] | Plant response rating, Lambsquarters [8, 14] | Plant response rating, Lambsquarters [8, 15] | Plant response rating, Lambsquarters [8, 16] | Plant response rating, Lambsquarters [8, 17] | Plant response rating, Morningglory [9, 15] | Plant response rating, Morningglory [9, 16] | Plant response rating, Morningglory [9, 17]
50: Plant response rating, Wheat [2, 13]
80: Plant response rating, Galium [5, 14] | Plant response rating, Galium [5, 18] | Plant response rating, Crabgrass, Large [6, 17]
65: Plant response rating, Barnyardgrass (0 to 100 scale, 0 is no effect, 100 is complete control) [3] | Plant response rating, Ryegrass, Italian [4, 17] | Plant response rating, Lambsquarters [8, 20]
75: Plant response rating, Foxtail, Giant [7, 17] | Plant response rating, Morningglory [9, 21]
70: Plant response rating, Morningglory [9, 14]
20: Plant response rating, Wheat [2, 10] | Plant response rating, Morningglory [9, 18] | Plant response rating, Morningglory [9, 19]
55: Plant response rating, Corn (corn (Zea mays); [16]) | Plant response rating, Morningglory [9, 20]
15: Plant response rating, Corn (corn (Zea mays); [20]) | Plant response rating, Crabgrass, Large [6, 14] | Plant response rating, Lambsquarters [8, 18]
100: Plant response rating, Pigweed [1, 10] | Pigweed plant response rating [1, 11] | Plant response rating, Pigweed [1, 12] | Plant response rating, Pigweed [1, 13] | Plant response rating, Galium [5, 19] | Plant response rating, Galium [5, 20] | Plant response rating, Galium [5, 21] | Plant response rating, Crabgrass, Large [6, 18] | Plant response rating, Crabgrass, Large [6, 19] | Plant response rating, Crabgrass, Large [6, 20] | Plant response rating, Crabgrass, Large [6, 21] | Plant response rating, Foxtail, Giant [7, 19] | Plant response rating, Foxtail, Giant [7, 20] | Plant response rating, Foxtail, Giant [7, 21]
30: Plant response rating, Wheat [2, 12] | Plant response rating, Corn (corn (Zea mays); [15])
5: Plant response rating, Ryegrass, Italian [4, 18] | Plant response rating, Corn (corn (Zea mays); [18])
85: Plant response rating, Lambsquarters [8, 21]
90: Plant response rating, Ryegrass, Italian [4, 21] | Plant response rating, Galium [5, 15] | Plant response rating, Galium [5, 16] | Plant response rating, Galium [5, 17]
45: Plant response rating, Corn (corn (Zea mays); [21])
35: Plant response rating, Ryegrass, Italian [4, 15] | Plant response rating, Foxtail, Giant [7, 15] | Plant response rating, Foxtail, Giant [7, 16]
25: Plant response rating, Corn (corn (Zea mays); [14]) | Plant response rating, Lambsquarters [8, 19]
